Assay results reported in article PMC12615753, “Glutathione as a taste modulator: molecular mechanisms of interaction with umami and sweet taste receptors” (Food Chemistry: Molecular Sciences, 2025).

Target: T1, hTAS1R1 H71Y/rTAS1R3 (UniProt Q7RTX1+Q923K1, H71Y)
T1 construct: UniProtKB number Q7RTX1–1); The cDNA coding region of rTAS1R3 was synthesized with optimized-codon usage for human expression; expressed in transfected cells; host or cells: HEK293T/17
T1 sequence (Q7RTX1 21-841 H71Y): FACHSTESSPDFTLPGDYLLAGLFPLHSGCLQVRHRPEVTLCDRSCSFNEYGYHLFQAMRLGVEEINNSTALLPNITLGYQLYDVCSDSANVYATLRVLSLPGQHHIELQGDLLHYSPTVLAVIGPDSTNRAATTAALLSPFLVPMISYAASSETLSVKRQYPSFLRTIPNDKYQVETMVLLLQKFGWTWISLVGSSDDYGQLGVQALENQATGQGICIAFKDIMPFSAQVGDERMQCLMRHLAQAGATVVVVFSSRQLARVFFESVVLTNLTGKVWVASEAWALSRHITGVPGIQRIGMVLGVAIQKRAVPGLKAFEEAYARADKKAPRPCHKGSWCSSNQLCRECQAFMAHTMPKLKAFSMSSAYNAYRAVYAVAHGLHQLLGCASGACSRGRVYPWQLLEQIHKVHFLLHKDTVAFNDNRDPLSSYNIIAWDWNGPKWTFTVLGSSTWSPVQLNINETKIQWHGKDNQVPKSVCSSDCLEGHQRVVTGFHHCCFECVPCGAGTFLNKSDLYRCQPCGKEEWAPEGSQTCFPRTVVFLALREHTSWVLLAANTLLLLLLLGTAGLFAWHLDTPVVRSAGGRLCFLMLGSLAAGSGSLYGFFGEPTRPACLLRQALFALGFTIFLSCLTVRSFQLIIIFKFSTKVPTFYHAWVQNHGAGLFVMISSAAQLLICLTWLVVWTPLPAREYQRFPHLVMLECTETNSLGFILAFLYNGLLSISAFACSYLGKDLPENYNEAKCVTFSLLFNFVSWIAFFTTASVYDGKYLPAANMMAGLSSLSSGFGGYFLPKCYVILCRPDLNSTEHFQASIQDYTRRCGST
T1 sequence (Q923K1 21-858): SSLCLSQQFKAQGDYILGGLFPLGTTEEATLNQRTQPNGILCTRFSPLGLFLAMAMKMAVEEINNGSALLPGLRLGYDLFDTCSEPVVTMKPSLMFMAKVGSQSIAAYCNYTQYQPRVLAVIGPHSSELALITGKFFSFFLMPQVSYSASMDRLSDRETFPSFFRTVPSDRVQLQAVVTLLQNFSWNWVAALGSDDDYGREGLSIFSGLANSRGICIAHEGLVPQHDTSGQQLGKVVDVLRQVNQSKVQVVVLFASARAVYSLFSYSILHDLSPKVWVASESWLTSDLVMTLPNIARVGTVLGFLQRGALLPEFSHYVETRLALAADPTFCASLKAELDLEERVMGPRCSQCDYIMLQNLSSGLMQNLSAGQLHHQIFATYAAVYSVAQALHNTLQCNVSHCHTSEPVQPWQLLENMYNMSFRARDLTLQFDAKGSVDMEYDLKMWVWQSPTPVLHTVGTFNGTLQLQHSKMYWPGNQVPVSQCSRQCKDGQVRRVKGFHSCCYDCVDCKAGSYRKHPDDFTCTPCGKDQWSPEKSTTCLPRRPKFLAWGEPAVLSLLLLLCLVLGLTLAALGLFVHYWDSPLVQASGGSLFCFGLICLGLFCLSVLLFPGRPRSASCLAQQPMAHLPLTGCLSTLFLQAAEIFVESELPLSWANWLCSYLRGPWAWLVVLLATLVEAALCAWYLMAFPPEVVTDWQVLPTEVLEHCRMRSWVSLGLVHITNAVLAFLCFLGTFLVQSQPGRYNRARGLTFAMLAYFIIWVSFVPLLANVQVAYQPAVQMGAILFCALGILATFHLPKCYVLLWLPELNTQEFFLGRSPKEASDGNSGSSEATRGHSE
Experiment: cell-based
Type: cell-based, human, rat
Excerpt: Chimeric Gα proteins, such as Gα16Gust44, Gα16Gi3 or Gα15i2, are widely used in the functional expression of TAS1R receptors ([Backes et al., 2015]; [Suess et al., 2015]; [Toda et al., 2021], [Toda et al., 2013], [Toda et al., 2018]; [Zhang et al., 2008]). Chimeric Gα15i2 (([Toda et al., 2013]), Supplementary data) was generated by replacing the last five residues of the C-terminal tail of rat Gα15i2 (EINLL) (UniProt number G3V6N8; https://www.uniprot.org/uniprot/) with the counterpart sequence from human GNAI2 (DCGLF) (UniProt number P04899-1) and cloning into the pcDNA3.1/Hygro vector (Invitrogen, Thermo Fisher Scientific, Illkirch, France) between the HindIII and NotI restriction sites, resulting in the plasmid pcDNA3.1-Gα15i2. Chimeric Gα16Gust44 construct have already been reported ([Raliou et al., 2011]). Briefly, Gα16Gust44 was generated by replacing the C-terminal of Gα16 with the C-terminal 44 residues of gustducin. As previously described, hTAS1R1 was amplified from human fungiform papillae cDNA and cloned and inserted into pcDNA3 (Invitrogen), generating pcDNA3-TAS1R1-WT (wild-type) ([Raliou et al., 2011]). […] The cDNA coding region of rTAS1R3 was synthesized with optimized-codon usage for human expression (Genewiz) and was cloned and inserted into the mammalian pcDNA4/myc-HisA (Invitrogen) expression vector between the EcoRI and NotI restriction sites, resulting in the plasmid pcDNA4-rTAS1R3. […] The sequence integrity of all the plasmid constructs was verified via automated DNA sequencing (Genewiz).
The hTAS1R1 mutants were co-expressed with the rTAS1R3 subunit in HEK293 cells. […] As a control, the functionality of the mutated receptors was checked after stimulation with S807 (Fig. S8), which interacts with TAS1R1-TMD ([Zhang et al., 2008]).

Structure (SMILES): N[C@@H](CCC(=O)N[C@@H](CS)C(=O)NCC(=O)O)C(=O)O [GSH, γ-L-glutamyl-L-cysteinyl-glycine]
- EC50: 12.4 mM
- effect of the added compound (1 mM) on the response to L-Glu (H71Y): did not affect
- Max ∆F/F0 (H71Y, GSH): 0.65 ± 0.11
- R1 = mutant EC50/WT EC50 (H71Y, GSH): 4.9
